Among the data in US20230406885A1, “CYCLIC PEPTIDES FOR TRAPPING INTERLEUKIN-1 BETA” (MERCK SHARP & DOHME LLC, priority 2022, published 2023) are IC50 values, retold here.

SMILES strings stand for the structures. *1 amine or outer side, *2 acyl side, *3 side chain or, on linkers, in order; H or OH if unused. Where a SMILES comes first, the peptide text is derived from it. [ ]: non-standard residue; d: D form. Trp(βS-Me,4-F) = C[C@@H](c1c[nH]c2cccc(F)c12)[C@H](N)C(=O)O; Bip(4'-COOH) = N[C@@H](Cc1ccc(-c2ccc(C(=O)O)cc2)cc1)C(=O)O; X2 = O=C(O)c1ccc(-c2ccc(C[C@H](N[*:1])C(=O)[*:2])cn2)cc1; X1 = CC(=O)N1CCN(c2ccc(C[C@H](N[*:1])C(=O)[*:2])cn2)CC1; 1Nal(3S-Me) = C[C@@H](c1cccc2ccccc12)[C@H](N)C(=O)O; X12 = CC(=O)NCCOc1ccc(C[C@H](N[*:1])C(=O)[*:2])cn1; Phe(4-COOH) = N[C@@H](Cc1ccc(C(=O)O)cc1)C(=O)O; h3Pal(5-CN) = N#Cc1cncc(CC[C@H](N)C(=O)O)c1; Pro(4R-NH2) = N[C@H]1CN[C@H](C(=O)O)C1; hTyr = N[C@@H](CCc1ccc(O)cc1)C(=O)O; 4Pal = N[C@@H](Cc1ccncc1)C(=O)O; dDab = NCC[C@@H](N)C(=O)O; dNMeA = CN[C@H](C)C(=O)O; Dap = NC[C@H](N)C(=O)O

T1 sequence (P01584 117-269): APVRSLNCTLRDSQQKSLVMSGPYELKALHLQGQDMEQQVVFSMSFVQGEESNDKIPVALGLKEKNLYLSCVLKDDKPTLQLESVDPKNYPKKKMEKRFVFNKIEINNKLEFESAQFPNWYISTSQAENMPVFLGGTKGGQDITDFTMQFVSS

This test concerns the target T1, Recombinant human IL-1β (Homo sapiens, UniProt P01584).
T1 construct: purchased BioLegend 579404
Description: IL-6 assay in MRC5 cells: inhibition of IL-1β induced IL-6 secretion (AlphaLISA). The class given is cell-based. As to conditions: inhibition of IL-1β induced IL-6 secretion in MRC5 cells; IL-1β pre-incubated 1 hour with compound; read-out: MRC5 IC50. How it is done:
Procedure for IL-6 Assay in MRC5 Cells
The inhibition of IL-1β induced IL-6 secretion was evaluated in MRC5 cells. Recombinant human IL-1β (BioLegend 579404) at 2×EC80 concentration was prepared in seeding medium, EMEM (ATCC 30-2003) with 0.025% BSA (Sigma A9576), 1× penicillin/streptomycin (Gibco 15070-063), 1×NEAA (Gibco 11140-050), 1× GlutaMax (Gibco 35050-061), and 1× sodium pyruvate (Gibco 11360-070). 20 μL of IL-1β was added to a 384-well collagen-coated plate (Corning 354664) and pre-incubated at ambient temperature for 1 hour with 200 nL of compound dispensed using an ECHO 555 liquid handler. Human lung fibroblast MRC5 cells (ATCC CCL-171) were added at a density of 3000 cells/20 μL per well. The cells were prepared by passaging three times in growth medium, EMEM (ATCC 30-2003) with 10% fetal bovine serum (Gibco 16140-071), 1× penicillin/streptomycin (Gibco 15070-063), 1×NEAA (Gibco 11140-050), 1× GlutaMax (Gibco 35050-061), and 1× sodium pyruvate (Gibco 11360-070) in collagen-coated T175 flasks (Greiner 661950) and harvested in seeding medium after 5 minutes of 0.25% trypsin-EDTA (Gibco 25200-056) digestion. The 384-well collagen-coated plate, containing a final volume of 40 μL, was incubated at 37° C., 5% CO2 overnight. 5 μL of the conditioned medium was transferred to a 384-well AlphaLISA plate (PerkinElmer 6005350) for detection of IL-6 using the human AlphaLISA IL-6 kit (PerkinElmer AL223F) as per the manufacturer's protocol. 20 μL of the acceptor bead/biotinylated antibody mix was added to the 384-well AlphaLISA plate and incubated for 1 hour at ambient temperature. The donor bead mix was protected from light and 25 μL was added to the plate and incubated for 30 minutes at ambient temperature. The AlphaLISA plate was read on an EnVision multimode plate reader (Perkin Elmer model 2104) using the AlphaScreen setting (laser exc at 680 nm and emis at 570 nm). Dose response curves and IC50 values were analyzed using a 4-parameter logistic equation in Spotfire software (Tibco, Palo Alto, CA).
Background: In Alpha technology, singlet oxygen from a donor bead excites a nearby acceptor bead.
As to `CC(=O)N1CCN(c2ccc(C[C@@H]3NC(=O)[C@H](CCc4cncc(C#N)c4)NC(=O)[C@@H](C)NC(=O)[C@H](CN)NC(=O)[C@H](Cc4ccncc4)NC(=O)[C@H](Cc4ccc(-c5ccc(C(=O)O)cc5)cc4)NC(=O)CNC(=O)[C@@H](C)N(C)C(=O)[C@H](CC(=O)O)NC(=O)[C@H]([C@@H](C)c4cccc5ccccc45)NC(=O)[C@@H]4C[C@@H](N)CN4C(=O)CNC(=O)[C@H](Cc4ccc(C(=O)O)cc4)NC(=O)[C@H](Cc4c[nH]c5ccccc45)NC3=O)cn2)CC1` [Example 1] (cyclo([X1]W[Phe(4-COOH)]G[Pro(4R-NH2)][1Nal(3S-Me)]D[dNMeA]G[Bip(4'-COOH)][4Pal][Dap][dA][h3Pal(5-CN)])), the IC50 came to 0.0365 nM.

In the case of `CC(=O)N1CCN(c2ccc(C[C@@H]3NC(=O)[C@H](CCc4cncc(C#N)c4)NC(=O)[C@@H](C)NC(=O)[C@H](CC(C)C)NC(=O)[C@H](CCCCN)NC(=O)[C@H](Cc4ccc(-c5ccc(C(=O)O)cc5)cc4)NC(=O)CNC(=O)[C@@H](C)N(C)C(=O)[C@H](CC(=O)O)NC(=O)[C@H]([C@@H](C)c4cccc5ccccc45)NC(=O)[C@@H]4C[C@@H](N)CN4C(=O)CNC(=O)[C@H](Cc4ccc(C(=O)O)cc4)NC(=O)[C@H](Cc4c[nH]c5ccccc45)NC3=O)cn2)CC1` [Example 2] (cyclo([X1]W[Phe(4-COOH)]G[Pro(4R-NH2)][1Nal(3S-Me)]D[dNMeA]G[Bip(4'-COOH)]KL[dA][h3Pal(5-CN)])), the IC50 was 0.0217 nM.

For the molecule `CC(=O)N1CCN(c2ccc(C[C@@H]3NC(=O)[C@H](CCc4ccc(O)cc4)NC(=O)[C@@H](C)NC(=O)[C@H](CC(C)C)NC(=O)[C@H](CCCCN)NC(=O)[C@H](Cc4ccc(-c5ccc(C(=O)O)cc5)cc4)NC(=O)CNC(=O)[C@@H](C)N(C)C(=O)[C@H](CC(=O)O)NC(=O)[C@H]([C@@H](C)c4cccc5ccccc45)NC(=O)[C@@H]4C[C@@H](N)CN4C(=O)CNC(=O)[C@H](Cc4ccc(C(=O)O)cc4)NC(=O)[C@H](Cc4c[nH]c5ccccc45)NC3=O)cn2)CC1` [Example 3] (cyclo([X1]W[Phe(4-COOH)]G[Pro(4R-NH2)][1Nal(3S-Me)]D[dNMeA]G[Bip(4'-COOH)]KL[dA][hTyr])), the IC50 is 0.0599 nM.

For the molecule `CC(=O)N1CCN(c2ccc(C[C@@H]3NC(=O)[C@H](CCc4cncc(C#N)c4)NC(=O)[C@@H](C)NC(=O)[C@H](CN)NC(=O)[C@H](Cc4c[nH]c5ccccc45)NC(=O)[C@H](Cc4ccc(-c5ccc(C(=O)O)cc5)cc4)NC(=O)CNC(=O)[C@@H](C)N(C)C(=O)[C@H](CC(=O)O)NC(=O)[C@H]([C@@H](C)c4cccc5ccccc45)NC(=O)[C@@H]4C[C@@H](N)CN4C(=O)CNC(=O)[C@H](Cc4ccc(C(=O)O)cc4)NC(=O)[C@H](Cc4c[nH]c5ccccc45)NC3=O)cn2)CC1` [Example 4] (cyclo([X1]W[Phe(4-COOH)]G[Pro(4R-NH2)][1Nal(3S-Me)]D[dNMeA]G[Bip(4'-COOH)]W[Dap][dA][h3Pal(5-CN)])), the IC50 came to 0.0438 nM.

As for `CC(=O)N1CCN(c2ccc(C[C@@H]3NC(=O)[C@H](CCc4ccc(O)cc4)NC(=O)[C@@H](C)NC(=O)[C@H](CN)NC(=O)[C@H](Cc4c[nH]c5ccccc45)NC(=O)[C@H](Cc4ccc(-c5ccc(C(=O)O)cc5)cc4)NC(=O)CNC(=O)[C@@H](C)N(C)C(=O)[C@H](CC(=O)O)NC(=O)[C@H]([C@@H](C)c4cccc5ccccc45)NC(=O)[C@@H]4C[C@@H](N)CN4C(=O)CNC(=O)[C@H](Cc4ccc(C(=O)O)cc4)NC(=O)[C@H](Cc4c[nH]c5ccccc45)NC3=O)cn2)CC1` [Example 5] (cyclo([X1]W[Phe(4-COOH)]G[Pro(4R-NH2)][1Nal(3S-Me)]D[dNMeA]G[Bip(4'-COOH)]W[Dap][dA][hTyr])), the IC50 was 0.674 nM.

Regarding `CC(=O)N1CCN(c2ccc(C[C@@H]3NC(=O)[C@H](CCc4ccc(O)cc4)NC(=O)[C@@H](C)NC(=O)[C@H](CC(C)C)NC(=O)[C@H](CCCCN)NC(=O)[C@H](Cc4ccc(-c5ccc(C(=O)O)cc5)cc4)NC(=O)CNC(=O)[C@@H](C)N(C)C(=O)[C@H](CC(=O)O)NC(=O)[C@H]([C@@H](C)c4c[nH]c5cccc(F)c45)NC(=O)[C@@H]4C[C@@H](N)CN4C(=O)CNC(=O)[C@H](Cc4ccc(C(=O)O)cc4)NC(=O)[C@H](Cc4c[nH]c5ccccc45)NC3=O)cn2)CC1` [Example 6] (cyclo([X1]W[Phe(4-COOH)]G[Pro(4R-NH2)][Trp(βS-Me,4-F)]D[dNMeA]G[Bip(4'-COOH)]KL[dA][hTyr])), the half-inhibitory concentration (IC50) is 0.0666 nM.

For `CC(=O)N1CCN(c2ccc(C[C@@H]3NC(=O)[C@H](CCc4ccc(O)cc4)NC(=O)[C@@H](CCN)NC(=O)[C@H](CC(C)C)NC(=O)[C@H](CCCCN)NC(=O)[C@H](Cc4ccc(-c5ccc(C(=O)O)cc5)cc4)NC(=O)CNC(=O)[C@@H](C)N(C)C(=O)[C@H](CC(=O)O)NC(=O)[C@H]([C@@H](C)c4c[nH]c5cccc(F)c45)NC(=O)[C@@H]4C[C@@H](N)CN4C(=O)CNC(=O)[C@H](Cc4ccc(C(=O)O)cc4)NC(=O)[C@H](Cc4c[nH]c5ccccc45)NC3=O)cn2)CC1` [Example 7] (cyclo([X1]W[Phe(4-COOH)]G[Pro(4R-NH2)][Trp(βS-Me,4-F)]D[dNMeA]G[Bip(4'-COOH)]KL[dDab][hTyr])), the IC50 came to 0.135 nM.

As to `CC(=O)N1CCN(c2ccc(C[C@@H]3NC(=O)[C@H](CCc4ccc(O)cc4)NC(=O)[C@@H](CCN)NC(=O)CNC(=O)[C@H](Cc4c[nH]c5ccccc45)NC(=O)[C@H](Cc4ccc(-c5ccc(C(=O)O)cc5)cc4)NC(=O)CNC(=O)[C@@H](C)N(C)C(=O)[C@H](CC(=O)O)NC(=O)[C@H]([C@@H](C)c4c[nH]c5cccc(F)c45)NC(=O)[C@@H]4C[C@@H](N)CN4C(=O)CNC(=O)[C@H](Cc4ccc(C(=O)O)cc4)NC(=O)[C@H](Cc4c[nH]c5ccccc45)NC3=O)cn2)CC1` [Example 8] (cyclo([X1]W[Phe(4-COOH)]G[Pro(4R-NH2)][Trp(βS-Me,4-F)]D[dNMeA]G[Bip(4'-COOH)]WG[dDab][hTyr])), the IC50 worked out at 0.14 nM.

`CC(=O)NCCOc1ccc(C[C@@H]2NC(=O)[C@H](CCc3ccc(O)cc3)NC(=O)[C@@H](C)NC(=O)[C@H](CC(C)C)NC(=O)[C@H](CCCCN)NC(=O)[C@H](Cc3ccc(-c4ccc(C(=O)O)cc4)cc3)NC(=O)CNC(=O)[C@@H](C)N(C)C(=O)[C@H](CC(=O)O)NC(=O)[C@H]([C@@H](C)c3c[nH]c4cccc(F)c34)NC(=O)[C@@H]3C[C@@H](N)CN3C(=O)CNC(=O)[C@H](Cc3ccc(C(=O)O)cc3)NC(=O)[C@H](Cc3c[nH]c4ccccc34)NC2=O)cn1` [Example 9] (cyclo([X12]W[Phe(4-COOH)]G[Pro(4R-NH2)][Trp(βS-Me,4-F)]D[dNMeA]G[Bip(4'-COOH)]KL[dA][hTyr])): the IC50 was 0.118 nM.

`C[C@@H]1C(=O)NCC(=O)N[C@@H](Cc2ccc(-c3ccc(C(=O)O)cc3)nc2)C(=O)N[C@@H](Cc2c[nH]c3ccccc23)C(=O)N[C@@H](CN)C(=O)N[C@H](C)C(=O)N[C@@H](CCc2ccc(O)cc2)C(=O)N[C@@H](Cc2ccc(-c3ccc(C(=O)O)cc3)nc2)C(=O)N[C@@H](Cc2c[nH]c3ccccc23)C(=O)N[C@@H](Cc2ccc(C(=O)O)cc2)C(=O)NCC(=O)N2C[C@H](N)C[C@H]2C(=O)N[C@@H]([C@@H](C)c2cccc3ccccc23)C(=O)N[C@@H](CC(=O)O)C(=O)N1C` [Example 10] (cyclo([X2]W[Phe(4-COOH)]G[Pro(4R-NH2)][1Nal(3S-Me)]D[dNMeA]G[X2]W[Dap][dA][hTyr])): the IC50 turned out to be 0.256 nM.

For the molecule `C[C@@H]1C(=O)NCC(=O)N[C@@H](Cc2ccc(-c3ccc(C(=O)O)cc3)cc2)C(=O)N[C@@H](Cc2c[nH]c3ccccc23)C(=O)N[C@@H](CN)C(=O)N[C@H](C)C(=O)N[C@@H](CCc2ccc(O)cc2)C(=O)N[C@@H](Cc2ccc(-c3ccc(C(=O)O)cc3)nc2)C(=O)N[C@@H](Cc2c[nH]c3ccccc23)C(=O)N[C@@H](Cc2ccc(C(=O)O)cc2)C(=O)NCC(=O)N2C[C@H](N)C[C@H]2C(=O)N[C@@H]([C@@H](C)c2cccc3ccccc23)C(=O)N[C@@H](CC(=O)O)C(=O)N1C` [Example 11] (cyclo([X2]W[Phe(4-COOH)]G[Pro(4R-NH2)][1Nal(3S-Me)]D[dNMeA]G[Bip(4'-COOH)]W[Dap][dA][hTyr])), the IC50 amounted to 0.0908 nM.

Regarding `C[C@@H]1C(=O)NCC(=O)N[C@@H](Cc2ccc(-c3ccc(C(=O)O)cc3)nc2)C(=O)N[C@@H](Cc2c[nH]c3ccccc23)C(=O)N[C@@H](CN)C(=O)N[C@H](C)C(=O)N[C@@H](CCc2ccc(O)cc2)C(=O)N[C@@H](Cc2ccc(-c3ccc(C(=O)O)cc3)cc2)C(=O)N[C@@H](Cc2c[nH]c3ccccc23)C(=O)N[C@@H](Cc2ccc(C(=O)O)cc2)C(=O)NCC(=O)N2C[C@H](N)C[C@H]2C(=O)N[C@@H]([C@@H](C)c2cccc3ccccc23)C(=O)N[C@@H](CC(=O)O)C(=O)N1C` [Example 12] (cyclo([Bip(4'-COOH)]W[Phe(4-COOH)]G[Pro(4R-NH2)][1Nal(3S-Me)]D[dNMeA]G[X2]W[Dap][dA][hTyr])), the IC50 is 0.0551 nM.

Usually IC50 stands for the concentration that gives 50% inhibition.
